Columns and labels:
RCC4 = experiment: XTT IC50 / viability assay, RCC4 cells; assay type: cell-based, human; conditions: Homo sapiens, RCC4, 96 h; XTT assay, four days
In short: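 RCC4 parental and VHL-reintroduced RCC4/VHL cells (DMEM, 10% FCS) treated with serially diluted drug for four days. Viability by XTT (0.3 mg/mL) with N-methyl dibenzopyrazine methyl sulfate, 1–2 h at 37 °C, absorbance 450 nm; IC50 by linear interpolation.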

melting point [°C]	Structure (SMILES)	IC50 (RCC4) [µM]
177 to 179	CCCN(Cc1ccc(C(=O)Nc2cccnc2)cc1)S(=O)(=O)c1ccc(C(C)(C)C)cc1 [Example 140, 4-{[[(4-tert-Butylphenyl)sulfonyl](propyl)amino]methyl}-N-(3-pyridinyl)benzamide]	> 20
189 to 191	Cc1cncc(NC(=O)c2ccc(CNS(=O)(=O)c3ccc(C(C)(C)C)cc3)cc2)c1 [Example 107, 4-({[(4-tert-Butylphenyl)sulfonyl]amino}methyl)-N-(5-methyl-3-pyridinyl)benzamide]	> 20
188 to 190	Cc1ncccc1NC(=O)c1ccc(CNS(=O)(=O)c2ccc(C(C)(C)C)cc2)cc1 [Example 108, 4-({[(4-tert-Butylphenyl)sulfonyl]amino}methyl)-N-(2-methyl-3-pyridinyl)benzamide]	> 20
242 to 244	CC(C)(C)c1ccc(S(=O)(=O)NCc2ccc(C(=O)Nc3ccc(Br)nc3)cc2)cc1 [Example 125, N-(6-Bromo-3-pyridinyl)-4-({[(4-tert-butylphenyl)sulfonyl]amino}methyl)benzamide]	> 20
183 to 185	Cc1ccncc1NC(=O)c1ccc(CNS(=O)(=O)c2ccc(C(C)(C)C)cc2)cc1 [Example 114, 4-({[(4-tert-Butylphenyl)sulfonyl]amino}methyl)-N-(4-methyl-3-pyridinyl)benzamide]	> 20
198 to 200	CC(C)(C)c1ccc(S(=O)(=O)NCc2ccc(C(=O)Nc3cccnc3)cc2F)cc1 [Example 148, 4-({[(4-tert-Butylphenyl)sulfonyl]amino}methyl)-3-fluoro-N-(3-pyridinyl)benzamide]	
185 to 187	CC(C)(C)c1ccc(S(=O)(=O)NCc2ccc(C(=O)Nc3cccnc3)c(F)c2)cc1 [Example 146, 4-({[(4-tert-Butylphenyl)sulfonyl]amino}methyl)-2-fluoro-N-(3-pyridinyl)benzamide]	
235 to 237	Cc1ccc(NC(=O)c2ccc(CNS(=O)(=O)c3ccc(C(C)(C)C)cc3)cc2)cn1 [Example 109, 4-({[(4-tert-Butylphenyl)sulfonyl]amino}methyl)-N-(6-methyl-3-pyridinyl)benzamide]	> 20
254 to 257	CC(C)(C)c1ccc(S(=O)(=O)NCc2ccc(C(=O)Nc3ccc(F)nc3)cc2)cc1 [Example 120, 4-({[(4-tert-Butylphenyl)sulfonyl]amino}methyl)-N-(6-fluoro-3-pyridinyl)benzamide]	> 20
162 to 163	Cc1cc(CNS(=O)(=O)c2ccc(C(C)(C)C)cc2)ccc1C(=O)Nc1cccnc1 [Example 145, 4-({[(4-tert-Butylphenyl)sulfonyl]amino}methyl)-2-methyl-N-(3-pyridinyl)benzamide]	
217 to 219	CC(C)(C)c1ccc(S(=O)(=O)NCc2ccc(C(=O)Nc3cncc(Cl)c3)cc2)cc1 [Example 115, 4-({[(4-tert-Butylphenyl)sulfonyl]amino}methyl)-N-(5-chloro-3-pyridinyl)benzamide]	> 20

Continued, compound first:

Structure (SMILES)	melting point [°C]	IC50 (RCC4) [µM]
CC(C)(C)c1ccc(S(=O)(=O)NCc2ccc(C(=O)Nc3cccnc3[N+](=O)[O-])cc2)cc1 [Example 116, 4-({[(4-tert-Butylphenyl)sulfonyl]amino}methyl)-N-(2-nitro-3-pyridinyl)benzamide]	191 to 193	> 20
O=C(Nc1cnccn1)c1ccc(CNS(=O)(=O)c2ccccc2)cc1 [Example 8, 4-(Phenylsulfonamidomethyl)-N-(pyrazin-2-yl)benzamide]	200 to 202	> 20
CC(C)(C)c1ccc(S(=O)(=O)NCc2ccc(C(=O)Nc3ccc(Cl)nc3)cc2)cc1 [Example 111, 4-({[(4-tert-Butylphenyl)sulfonyl]amino}methyl)-N-(6-chloro-3-pyridinyl)benzamide]	251 to 253	> 20
COc1ccc(NC(=O)c2ccc(CNS(=O)(=O)c3ccc(C(C)(C)C)cc3)cc2)cn1 [Example 110, 4-({[(4-tert-Butylphenyl)sulfonyl]amino}methyl)-N-(6-methoxy-3-pyridinyl)benzamide]	238 to 240	> 20
CC(C)(C)c1ccc(S(=O)(=O)NCc2ccc(C(=O)Nc3cncc(F)c3)cc2)cc1 [Example 121, 4-({[(4-tert-Butylphenyl)sulfonyl]amino}methyl)-N-(5-fluoro-3-pyridinyl)benzamide]	214 to 217	> 20
COc1ccc(C(=O)NCc2ccc(C(=O)Nc3cccnc3)cc2)cc1OC [Example 88, 3,4-Dimethoxy-N-(4-(pyridin-3-ylcarbamoyl)benzyl)benzamide]	219 to 220	> 20
CC(C)(C)c1ccc(S(=O)(=O)NCc2ccc(C(=O)Nc3ccc(C(F)(F)F)nc3)cc2)cc1 [Example 118, 4-({[(4-tert-Butylphenyl)sulfonyl]amino}methyl)-N-[6-(trifluoromethyl)-3-pyridinyl]benzamide]	249 to 252	> 20
O=C(Nc1cccnc1)c1ccc(CNS(=O)(=O)c2ccccc2C(F)(F)F)cc1 [Example 15, N-(pyridin-3-yl)-4-((2-(trifluoromethyl)phenylsulfonamido)methyl)benzamide]	234 to 237	> 20
COC(=O)c1ccccc1S(=O)(=O)NCc1ccc(C(=O)Nc2cccnc2)cc1 [Example 14, Methyl 2-(N-(4-(Pyridin-3-ylcarbamoyl)benzyl)sulfamoyl)benzoate]	155 to 157	> 20
O=C(Nc1cccnc1)c1ccc(CNS(=O)(=O)c2ccc(C#CCO)cc2)cc1 [Example 103, 4-[({[4-(3-Hydroxy-1-propynyl)phenyl]sulfonyl}amino)methyl]-N-(3-pyridinyl)benzamide]	207 to 210	> 20
O=C(Nc1cc[nH]n1)c1ccc(CNS(=O)(=O)c2ccccc2)cc1 [Example 5, 4-(Phenylsulfonamidomethyl)-N-(1H-pyrazol-3-yl)benzamide]	180 to 182	> 20
O=C(Nc1cccc2ncccc12)c1ccc(CNS(=O)(=O)c2ccccc2)cc1 [Example 7, 4-(Phenylsulfonamidomethyl)-N-(quinolin-5-yl)benzamide]	198 to 201	> 20
O=C(Nc1cccnc1)c1ccc(CNS(=O)(=O)c2ccc(-c3cccc(C(F)(F)F)c3)cc2)cc1 [Example 134, N-(3-Pyridinyl)-4-[({[3′-(trifluoromethyl)[1,1′-biphenyl]-4-yl]sulfonyl}amino)methyl]benzamide]	227 to 229	> 20
C=CC(=O)Nc1cccc(S(=O)(=O)NCc2ccc(C(=O)Nc3cccnc3)cc2)c1 [Example 144, 4-[({[3-(Acryloylamino)phenyl]sulfonyl}amino)methyl]-N-(3-pyridinyl)benzamide]	178 to 180	
O=C(Nc1cccnc1)c1ccc(CNS(=O)(=O)c2ccc(C34CC5CC(CC(Cl)(C5)C3)C4)cc2)cc1 (hydrate or solvate) [Example 40, 4-[({[4-(3-chloro-1-adamantyl)phenyl]sulfonyl}amino)methyl]-N-(3-pyridinyl)benzamide]	229 to 232	
O=C(Nc1ccncc1)c1ccc(CNS(=O)(=O)c2ccc(I)cc2)cc1 [Example 99]	270 to 273	> 20
O=C(Nc1nccs1)c1ccc(CNS(=O)(=O)c2ccccc2)cc1 [Example 4, 4-(Phenylsulfonamidomethyl)-N-(thiazol-2-yl)benzamide]	189 to 191	> 20
O=C(Nc1ncccn1)c1ccc(CNS(=O)(=O)c2ccccc2)cc1 [Example 9, 4-(Phenylsulfonamidomethyl)-N-(pyrimidin-2-yl)benzamide]	180 to 182	> 20
O=C(Nc1cccnc1)c1ccc(CNS(=O)(=O)c2ccc(C34CC5CC(CC(C5)C3)C4)cc2)cc1 (hydrate or solvate) [Example 39, 4-[({[4-(1-Adamantyl)phenyl]sulfonyl}amino)methyl]-N-(3-pyridinyl)benzamide]	220 to 222	
Cc1cc(C)cc(C(=O)NCc2ccc(C(=O)Nc3cccnc3)cc2)c1 [Example 87, 3,5-Dimethyl-N-(4-(pyridin-3-ylcarbamoyl)benzyl)benzamide]	241 to 243	> 20
COC(=O)c1ccc(S(=O)(=O)NCc2ccc(C(=O)Nc3cccnc3)cc2)cc1 [Example 47, Methyl 4-(N-(4-(Pyridin-3-ylcarbamoyl)benzyl)sulfamoyl)benzoate]	212 to 215	> 20
CC(=O)Nc1ccc(NC(=O)c2ccc(CNS(=O)(=O)c3ccc(C(C)(C)C)cc3)cc2)cn1 [Example 119, N-[6-(Acetylamino)-3-pyridinyl]-4-({[(4-tert-butylphenyl)sulfonyl]amino}methyl)benzamide]	240 to 243	> 20
O=C(Nc1cccnc1)c1ccc(CNS(=O)(=O)c2ccc([N+](=O)[O-])cc2)cc1 [Example 51, 4-((4-Nitrophenylsulfonamido)methyl)-N-(pyridin-3-yl)benzamide]	241 to 243	> 20
O=C(Nc1ccc[n+]([O-])c1)c1ccc(CNS(=O)(=O)c2ccccc2)cc1 [Example 93, N-(1-Oxido-3-pyridinyl)-4-((phenylsulfonamido)methyl)-benzamide]	230 to 231	> 20
Cc1c(Cl)cccc1S(=O)(=O)NCc1ccc(C(=O)Nc2cccnc2)cc1 [Example 68, 4-((3-Chloro-2-methylphenylsulfonamido)methyl)-N-(pyridin-3-yl)benzamide]	218 to 221	> 20

Source: patent US20120225862A1, “HETEROARYL BENZAMIDES, COMPOSITIONS AND METHODS OF USE” (AUCKLAND UNIVSERVICES LIMITED, priority 2009, published 2012)
